# Literature values as cited in patent publication US5468499A, “Liposomes containing the salt of phosphoramide mustard and related compounds” (Ohio State University, priority 1993, dated 1995).
# Test system: tumor
structure (smiles),measurement,value
O=P1(N(CCCl)CCCl)NCCCO1 (stereo not shown) [cyclophosphamide],tumoricidal activity of the drug itself,not directly tumoricidal
